Measurements published in patent US12780800B1, “Triazole-pyridinyl substituted azacyclohexyl acetic acid compounds as LPA receptor antagonists” (Viva Star Biosciences Limited, priority 2021, dated 2022).

Biological target: T1, LPA1 (Homo sapiens, UniProt Q92633)
T1 construct: ProLink (PK) beta-galactosidase enzyme-fragment tag; host or cells: CHO-K1
Assay: LPA1 calcium flux assay (LPA1 functional antagonist assay)
Assay type: cell-based
Conditions: PathHunter CHO-K1 EDG2 β-Arrestin cell line; calcium indicator dye; stimulated with EC80 concentration of LPA; FLIPR Tetra
How it was run: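 The LPA1 antagonist readout was intracellular calcium flux, and IC50 values were calculated from it. Plates stood 30 min at RT after compound addition. Cells, grown overnight, had first taken up calcium dye over 45 min at 37 °C.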

T1 sequence (Q92633 whole entry, the tested form may be a part): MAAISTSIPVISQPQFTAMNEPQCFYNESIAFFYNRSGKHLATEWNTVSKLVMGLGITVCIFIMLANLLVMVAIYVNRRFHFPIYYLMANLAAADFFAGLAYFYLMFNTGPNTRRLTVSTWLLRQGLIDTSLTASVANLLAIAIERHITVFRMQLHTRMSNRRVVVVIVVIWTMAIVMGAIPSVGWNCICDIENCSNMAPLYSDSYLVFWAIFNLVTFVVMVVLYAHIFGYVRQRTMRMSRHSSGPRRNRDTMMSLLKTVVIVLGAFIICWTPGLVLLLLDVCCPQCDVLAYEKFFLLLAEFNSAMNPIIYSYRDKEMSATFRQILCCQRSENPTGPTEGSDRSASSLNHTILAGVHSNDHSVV

Q: How did the IC50 turn out when `CCc1nc(-c2nnn(C)c2Cn2nnnc2CC2CC2)ccc1N1C[C@@H](CC(=O)O)CC(F)(F)C1` [Example 138, 2-[(3S)-1-[6-(5-{[5-(cyclopropylmethyl)-1H-1,2,3,4-tetrazol-1-yl]methyl}-1-methyl-1H-1,2,3-triazol-4-yl)-2-ethylpyridin-3-yl]-5,5-difluoropiperidin-3-yl]acetic acid] was run?
A: The IC50 was 100 to 500 nM.

Q: With `CCc1nc(-c2cnn(C)c2Cn2nncc2CC2CC2)ncc1N1C[C@@H](CC(=O)O)CC(F)(F)C1` [Example 134, (S)-2-(1-(2-(5-((5-(cyclopropylmethyl)-1H-1,2,3-triazol-1-yl)methyl)-1-methyl-1H-pyrazol-4-yl)-4-ethylpyrimidin-5-yl)-5,5-difluoropiperidin-3-yl)acetic acid] as the molecule, how does the IC50 read?
A: Its IC50 is 100 to 500 nM.

Q: Which IC50 does the source give for `CCCc1ccc(=O)n(Cc2c(-c3ccc(N4CCC[C@@H](CC(=O)O)C4)c(CC)n3)nnn2C)c1` [Example 23, (S)-2-(1-(2-ethyl-6-(1-methyl-5-((2-oxo-5-propylpyridin-1(2H)-yl)methyl)-1H-1,2,3-triazol-4-yl)pyridin-3-yl)piperidin-3-yl)acetic acid] here?
A: Its IC50 is > 5000 nM.

Q: Which IC50 does the source give for `CCCc1ccc(=O)n(Cc2c(-c3ccc(N4CCCC(CC(=O)O)C4=O)c(CC)n3)nnn2C)c1` (single isomer, unassigned) [Example 53, (S) or (R)-2-(1-(2-ethyl-6-(1-methyl-5-((2-oxo-5-propylpyridin-1(2H)-yl)methyl)-1H-1,2,3-triazol-4-yl)pyridin-3-yl)-2-oxopiperidin-3-yl)acetic acid] here?
A: The IC50 was > 5000 nM.

Q: Which IC50 does the source give for `CCc1nc(-c2nnn(C)c2COc2nccc(C3CCC3)n2)ccc1N1CC(CC(=O)O)CCC1=O` (single isomer, unassigned) [Example 91, (R) or (S)-2-(1-(6-(5-(((4-cyclobutylpyrimidin-2-yl)oxy)methyl)-1-methyl-1H-1,2,3-triazol-4-yl)-2-ethylpyridin-3-yl)-6-oxopiperidin-3-yl)acetic acid] here?
A: The IC50 was > 5000 nM.

Q: Which IC50 does the source give for `CCCc1cc(=O)n(Cc2c(-c3ccc(N4C[C@@H](CC(=O)O)CC(F)(F)C4)c(CC)n3)nnn2C)cn1` [Example 31] here?
A: The IC50 was > 5000 nM.

Q: With `CCCc1ccc(=O)n(Cc2c(-c3ccc(CN4CC(C(=O)O)CC(F)(F)C4)c(C)n3)nnn2C)c1` (single isomer, unassigned) [Example 156, (S) or (R)-5,5-difluoro-1-((2-methyl-6-(1-methyl-5-((2-oxo-5-propylpyridin-1(2H)-yl)methyl)-1H-1,2,3-triazol-4-yl)pyridin-3-yl)methyl)piperidine-3-carboxylic acid] as the molecule, how does the IC50 read?
A: The IC50 was 100 to 500 nM.

Q: For `Cc1nc(-c2nnn(C)c2COc2nccc(C3CCC3)n2)ccc1N1CCC[C@H](CC(=O)O)C1` [Example 84, (R)-2-(1-(6-(5-(((4-cyclobutylpyrimidin-2-yl)oxy)methyl)-1-methyl-1H-1,2,3-triazol-4-yl)-2-methylpyridin-3-yl)piperidin-3-yl)acetic acid], which IC50 is on record?
A: Its IC50 is < 100 nM.

Q: `CCCc1ccc(=O)n(Cc2c(-c3ccc(N4CCC[C@H](CC(=O)O)C4)c(CC)n3)cnn2C)c1` [Example 42, (R)-2-(1-(2-ethyl-6-(1-methyl-5-((2-oxo-5-propylpyridin-1(2H)-yl)methyl)-1H-pyrazol-4-yl)pyridin-3-yl)piperidin-3-yl)acetic acid] was tested. Which IC50 did it give?
A: Its IC50 is 500 to 5000 nM.

Q: For `CCc1nc(-c2nnn(C)c2COc2cc(-n3cccn3)ncn2)ccc1N1CCC[C@H](CC(=O)O)C1` [Example 82, (R)-2-(1-(6-(5-(((6-(1H-pyrazol-1-yl)pyrimidin-4-yl)oxy)methyl)-1-methyl-1H-1,2,3-triazol-4-yl)-2-ethylpyridin-3-yl)piperidin-3-yl)acetic acid], which IC50 is on record?
A: Its IC50 is < 100 nM.

Q: For `CCc1nc(-c2nnn(C)c2Cn2cc(CC3CC3)ccc2=O)ccc1N1C[C@@H](CC(=O)O)CC(F)(F)C1` [Example 13, (S)-2-(1-(6-(5-((5-(cyclopropylmethyl)-2-oxopyridin-1(2H)-yl)methyl)-1-methyl-1H-1,2,3-triazol-4-yl)-2-ethylpyridin-3-yl)-5,5-difluoropiperidin-3-yl)acetic acid], which IC50 is on record?
A: Its IC50 is < 100 nM.

Q: For `CCCc1ccc(=O)n(Cc2c(-c3ccc(N4C[C@@H](CC(=O)O)CC(F)(F)C4)c(C)n3)nnn2C)c1` [Example 4, (S)-2-(5,5-difluoro-1-(2-methyl-6-(1-methyl-5-((2-oxo-5-propylpyridin-1(2H)-yl)methyl)-1H-1,2,3-triazol-4-yl)pyridin-3-yl)piperidin-3-yl)acetic acid], which IC50 is on record?
A: Its IC50 is 100 to 500 nM.

Q: For `CCCc1ccc(=O)n(Cc2c(-c3ccc(N4C[C@@H](CC(=O)O)CC(F)(F)C4)c(CC)n3)cnn2C)c1` [Example 41, (S)-2-(1-(2-ethyl-6-(1-methyl-5-((2-oxo-5-propylpyridin-1(2H)-yl)methyl)-1H-pyrazol-4-yl)pyridin-3-yl)-5,5-difluoropiperidin-3-yl)acetic acid], which IC50 is on record?
A: Its IC50 is 100 to 500 nM.

Q: Which IC50 does the source give for `Cc1nc(-c2nnn(C)c2COc2nccc(C3CC3)n2)ccc1N1C[C@@H](CC(=O)O)CC(F)(F)C1` [Example 75, (S)-2-(1-(6-(5-(((4-cyclopropylpyrimidin-2-yl)oxy)methyl)-1-methyl-1H-1,2,3-triazol-4-yl)-2-methylpyridin-3-yl)-5,5-difluoropiperidin-3-yl)acetic acid] here?
A: Its IC50 is 500 to 5000 nM.

Q: For `CCc1nc(-c2nnn(C)c2Cn2nncc2CC2CC2)ccc1N1C[C@@H](CC(=O)O)CC(F)(F)C1` [Example 132, (S)-2-(1-(6-(5-((5-(cyclopropylmethyl)-1H-1,2,3-triazol-1-yl)methyl)-1-methyl-1H-1,2,3-triazol-4-yl)-2-ethylpyridin-3-yl)-5,5-difluoropiperidin-3-yl)acetic acid], which IC50 is on record?
A: Its IC50 is < 100 nM.

Q: `CCCc1ccc(=O)n(Cc2c(-c3cnc(N4C[C@H](CC(=O)O)CC(F)(F)C4)cn3)nnn2C)c1` (stereo in doubt) [Example 56, (R)-2-(5,5-difluoro-1-(5-(1-methyl-5-((2-oxo-5-propylpyridin-1(2H)-yl)methyl)-1H-1,2,3-triazol-4-yl)pyrazin-2-yl)piperidin-3-yl)acetic acid] was tested. Which IC50 did it give?
A: Its IC50 is > 5000 nM.

Q: `CCCOc1ccc(=O)n(Cc2c(-c3ccc(N4C[C@@H](CC(=O)O)CC(F)(F)C4)c(CC)n3)nnn2C)c1` [Example 25, (S)-2-(1-(2-ethyl-6-(1-methyl-5-((2-oxo-5-propoxypyridin-1 (2H)-yl)methyl)-1H-1,2,3-triazol-4-yl)pyridin-3-yl)-5,5-difluoropiperidin-3-yl)acetic acid] was tested. Which IC50 did it give?
A: The IC50 was 100 to 500 nM.

Q: `Cc1nc(-c2nnn(C)c2Cn2ccc(CC3CC3)c(C)c2=O)ccc1N1C[C@@H](CC(=O)O)CC(F)(F)C1` [Example 2, (S)-2-(1-(6-(5-((4-(cyclopropylmethyl)-3-methyl-2-oxopyridin-1(2H)-yl)methyl)-1-methyl-1H-1,2,3-triazol-4-yl)-2-methylpyridin-3-yl)-5,5-difluoropiperidin-3-yl)acetic acid] was tested. Which IC50 did it give?
A: The IC50 was 500 to 5000 nM.

Q: `Cc1nc(-c2nnn(C)c2Cn2ccn(CC(C)C)c2=O)ccc1N1C[C@@H](CC(=O)O)CC(F)(F)C1` [Example 71, (S)-2-(5,5-difluoro-1-(6-(5-((3-isobutyl-2-oxo-2,3-dihydro-1H-imidazol-1-yl)methyl)-1-methyl-1H-1,2,3-triazol-4-yl)-2-methylpyridin-3-yl)piperidin-3-yl)acetic acid] was tested. Which IC50 did it give?
A: The IC50 was > 5000 nM.

Q: Which IC50 does the source give for `CCc1nc(-c2nnn(C)c2Cn2cc(CC(C)C)ccc2=O)ccc1CN1CC(C(=O)O)CC(F)(F)C1` (single isomer, unassigned) [Example 154, (S) or (R)-1-((2-ethyl-6-(5-((5-isobutyl-2-oxopyridin-1(2H)-yl)methyl)-1-methyl-1H-1,2,3-triazol-4-yl)pyridin-3-yl)methyl)-5,5-difluoropiperidine-3-carboxylic acid] here?
A: The IC50 was 100 to 500 nM.
